Results: ChEMBL document CHEMBL5523727, “Discovery of KT-413, a Targeted Protein Degrader of IRAK4 and IMiD Substrates Targeting MYD88 Mutant Diffuse Large B-Cell Lymphoma” (J Med Chem, 2024)

How the values were obtained:
[1] = Half life in rat at 2 mg/kg, iv by LC-MS/MS analysis; format: ADME, organism-based; details: in vivo
Cereblon/Ikaros = Cereblon/Ikaros (Homo sapiens, UniProt Q96SW2+Q13422); test: PROTAC activity at CRBN/Ikaros in human OCI-Ly10 cells assessed as induction of Ikaros degradation measured after 24 hrs by MSD assay; format: cell-based
[2] = molecular target: T1, Protein cereblon/Interleukin-1 receptor-associated kinase 4 (Homo sapiens, UniProt Q9NWZ3+Q96SW2); test: PROTAC activity at CRBN/IRAK4 in human OCI-Ly10 cells assessed as induction of IRAK4 degradation measured after 24 hrs by MSD assay relative to control; format: cell-based
Target sequence in this assay (Q96SW2 whole entry, looked up): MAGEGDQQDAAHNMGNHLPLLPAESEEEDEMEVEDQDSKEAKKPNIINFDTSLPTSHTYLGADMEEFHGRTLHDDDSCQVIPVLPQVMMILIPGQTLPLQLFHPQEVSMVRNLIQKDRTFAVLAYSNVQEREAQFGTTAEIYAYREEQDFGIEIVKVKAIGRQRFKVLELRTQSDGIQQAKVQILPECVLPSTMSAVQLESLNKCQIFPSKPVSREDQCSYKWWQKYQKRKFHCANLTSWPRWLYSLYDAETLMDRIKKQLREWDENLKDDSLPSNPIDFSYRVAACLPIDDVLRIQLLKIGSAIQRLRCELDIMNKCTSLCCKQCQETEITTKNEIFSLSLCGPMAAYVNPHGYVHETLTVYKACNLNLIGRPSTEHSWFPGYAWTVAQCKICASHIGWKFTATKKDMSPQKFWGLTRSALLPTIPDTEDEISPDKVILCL
Target sequence in this assay (Q9NWZ3 whole entry, looked up): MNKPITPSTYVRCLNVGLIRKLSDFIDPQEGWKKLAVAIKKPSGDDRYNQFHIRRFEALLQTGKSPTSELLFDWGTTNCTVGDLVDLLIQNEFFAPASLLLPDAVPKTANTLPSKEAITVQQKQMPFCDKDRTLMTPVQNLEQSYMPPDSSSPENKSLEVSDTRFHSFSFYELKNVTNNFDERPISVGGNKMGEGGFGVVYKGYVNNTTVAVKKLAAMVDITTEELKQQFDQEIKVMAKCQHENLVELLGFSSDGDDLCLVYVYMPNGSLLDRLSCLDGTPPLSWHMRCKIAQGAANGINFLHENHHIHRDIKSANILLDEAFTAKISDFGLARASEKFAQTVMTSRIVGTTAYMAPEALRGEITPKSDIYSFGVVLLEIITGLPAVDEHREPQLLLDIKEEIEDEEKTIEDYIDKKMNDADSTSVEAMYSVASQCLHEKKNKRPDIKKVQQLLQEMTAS

[3] = Metabolic stability in rat liver microsomes assessed as intrinsic clearance at 1 uM measured upto 60 mins in presence of NADPH by UPLC/MS-MS analysis; format: ADME, Microsome; details: read-out: CLH
[4] = AUC in rat at 3 mg/kg, po by LC-MS/MS analysis; format: ADME, organism-based; details: in vivo
[5] = Passive permeability of the compound in wild type MDCK cells across apical to basolateral side at 1 uM measured for 120 mins by LC-MS/MS analysis; format: ADME, cell-based, Canis lupus familiaris; details: dog, read-out: permeability
[6] = Metabolic stability in human liver microsomes assessed as intrinsic clearance at 1 uM measured upto 60 mins in presence of NADPH by UPLC/MS-MS analysis; format: ADME, Microsome; details: read-out: CLH
[7] = Oral bioavailability in rat at 3 mg/kg by LC-MS/MS analysis; format: ADME, organism-based; details: in vivo
[8] = Clearance in rat at 2 mg/kg, iv by LC-MS/MS analysis; format: ADME, organism-based; details: in vivo
OCI-Ly10 = test: Antiproliferative activity against human OCI-Ly10 cells measured after 4 days by CellTiter-Glo Luminescent Cell Viability Assay; format: functional, cell-based; details: Homo sapiens, OCI-Ly10, 96 h
[9] = Volume of distribution at steady state in rat at 2 mg/kg, iv by LC-MS/MS analysis; format: ADME, organism-based; details: in vivo, read-out: Vdss
[10] = molecular target: T1, Protein cereblon/Interleukin-1 receptor-associated kinase 4; test: PROTAC activity at CRBN/IRAK4 in human OCI-Ly10 cells assessed as induction of IRAK4 degradation measured after 24 hrs by MSD assay; format: cell-based
Target sequence in this assay (Q9NWZ3 whole entry): as the sequence (Q9NWZ3 whole entry, looked up) above
Target sequence in this assay (Q96SW2 whole entry): as the sequence (Q96SW2 whole entry, looked up) above

[11] = AUC in rat at 5 mg/kg, po by LC-MS/MS analysis; format: ADME, organism-based; details: in vivo
[12] = Oral bioavailability in rat at 5 mg/kg by LC-MS/MS analysis; format: ADME, organism-based; details: in vivo

Sequence of Cereblon/Ikaros (Q96SW2 whole entry): as the sequence (Q96SW2 whole entry, looked up) above
Sequence of Cereblon/Ikaros (Q13422 whole entry): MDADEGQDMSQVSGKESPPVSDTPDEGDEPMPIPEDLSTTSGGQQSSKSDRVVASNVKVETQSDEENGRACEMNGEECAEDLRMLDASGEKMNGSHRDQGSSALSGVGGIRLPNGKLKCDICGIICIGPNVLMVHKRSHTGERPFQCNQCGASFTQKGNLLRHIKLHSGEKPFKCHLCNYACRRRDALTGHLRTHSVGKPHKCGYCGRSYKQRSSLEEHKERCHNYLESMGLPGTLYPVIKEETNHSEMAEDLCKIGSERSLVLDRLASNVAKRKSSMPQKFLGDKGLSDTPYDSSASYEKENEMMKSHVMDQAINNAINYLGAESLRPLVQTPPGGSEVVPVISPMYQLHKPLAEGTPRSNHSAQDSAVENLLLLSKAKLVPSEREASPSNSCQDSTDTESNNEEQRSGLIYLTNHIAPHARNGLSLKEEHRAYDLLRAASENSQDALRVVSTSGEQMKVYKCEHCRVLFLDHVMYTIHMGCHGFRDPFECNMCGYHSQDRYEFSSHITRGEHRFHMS

| Compound | half-life [1] [min] | DC50 (Cereblon/Ikaros) [nM] | Emax [2] [%] | microsomal CLint at 1 µM [3] [µL/min/mg] | AUC [4] [µM·h] | Papp A→B at 2 h, 1 µM [5] [×10⁻⁶ cm/s] | microsomal CLint at 1 µM [6] [µL/min/mg] | bioavailability [7] [%] | clearance [8] [mL/min/kg] | IC50 (OCI-Ly10) [nM] | Vd [9] [L/kg] | DC50 [10] [nM] | AUC [11] [µM·h] | bioavailability [12] [%] |
| --- | --- | --- | --- | --- | --- | --- | --- | --- | --- | --- | --- | --- | --- | --- |
| COc1cc2nc([C@H]3CC[C@H](CN4CC5(CC(CCNc6cccc7c6C(=O)N(C6CCC(=O)NC6=O)C7=O)C5)C4)CC3)oc2cc1NC(=O)c1cccc(C(F)(F)F)n1 (stereo partly drawn) | 720 | 6 | 68 | 2.9 | 0.5 | 0.34 | 3.9 | 10 | 9.4 | 53 | 9.6 | 190 |  |  |
| COc1cc2nc([C@H]3CC[C@H](CN4CC5(CC(CCNc6cccc7c6C(=O)N(C6CCC(=O)NC6=O)C7=O)C5)C4)CC3)sc2cc1NC(=O)c1cccc(C(F)(F)F)n1 (stereo partly drawn) | 1440 | 14 |  | 1 |  | 0.18 | 1.5 |  | 4.8 | 72 | 9.7 | 35 | 2.5 | 23 |
